Experimental data as given in publication PMC12801355, “Peptide Amphiphiles Hitchhike on Endogenous Biomolecules for Enhanced Cancer Imaging and Therapy” (Advanced Materials (Deerfield Beach, Fla.), 2025).
Where a SMILES comes first, the peptide text is derived from it. The star is where a group is joined. Palmitoyl = CCCCCCCCCCCCCCCC(=O)*

Tests used:
[1] = system: 4T1 mouse breast cancer cells; assay: Cellular uptake of Cy5 labeled PAs; type: cell-based; details: 10 µM Cy5‐PA, 2 h incubation at 37 °C
Procedure: To compare the uptake of SA‐E and SA‐K, 1 × 10^5 4T1 cells were grown to near confluency (1–2 days) in 96 well plates with black walls and flat glass bottom. 100% Cy5 conjugated PAs (20 or 10 µM) or 10% Cy5 conjugated PA micelles (10 µM Cy5‐PAs mixed with 90 µM maleimide blocked labeled PAs) were preincubated in 10% FBS containing RPMI for 30 min at 37 °C, wells were aspirated, and 100 µL of media containing PAs were added. The plate was incubated for 30 min for the experiments with 100% Cy5 conjugated PAs. Media were aspirated, wells were washed 3x with 150 µL sterile PBS, and then 100 µL RPMI containing 10% FBS was added to each well. The plate was incubated for 1 h at 37 °C. For 10% and 100% Cy5 micelle uptake comparison, plate was incubated for 2 h at 37 °C with PAs. Then, media containing PAs were aspirated and washed with PBS, as above. Cell nuclei were stained with Hoechst (1:5000 dilution in PBS) for 5 min and then removed. 100 µL of phenol red free RPMI containing 10% FBS was added to each well. […] The microscope incubator was preheated for 30 min to reach 35 °C prior to imaging.
To study the uptake of SA‐E or SA‐K micelles (10% or 100% Cy5 micelles) or No‐SA over time, 4T1 cells were grown to near confluency in a 96 well plate as described above. Cy5 conjugated 100% Cy5 conjugated PAs (20 µM), 10% Cy5 conjugated PAs (10 µM Cy5), or No‐SA (20 µM) or were preincubated in 10% FBS containing RPMI for 30 min at 37 °C. Cell nuclei were stained with Hoechst stain as above. Cell membranes were stained (CellBrite 488, 1:1000 in 10% FBS containing RPMI) for 30 min at 37 °C. Wells were aspirated, and 100 µL of PAs were added to the wells for ≈1 min. Wells were washed with sterile PBS (3x, 150 µL), and Confocal images were taken at different time points (up to 2 h) after PA or No‐SA addition as described above using a 60x objective.

[2] = Fluorescence polarization of PA nanostructures; type: physicochemical; details: 10 mol% ICG conjugated PA (20 µM) with unconjugated PA, 200 µM total, PBS; mean ± SEM, 3 wells
Procedure: ICG (10 mol%) containing PA micelles were prepared by mixing ICG‐conjugated PAs with unconjugated or MMAE‐conjugated PAs to achieve a final concentration of 20 µM ICG‐conjugated PAs and 200 µM of total PAs. Aliquots of 100 µL were added to a 96‐well plate (3 wells for each PA). Fluorescence polarization measurements were performed using a microplate reader (TECAN Spark 20 M). The corrected parallel intensity (I par) and perpendicular intensity (Iper) were used to calculate the fluorescence anisotropy (r) using the following equation: r = […].

HeLa tumors = assay: Tumor accumulation in wild type or LDL‐R‐/‐ tumors; type: in vivo, mouse; details: 50 nmol IV, 2 days
Procedure: (§1) For tumor accumulation studies in subcutaneous (HCT‐116, A375, TRAMP‐C2, MC38, LLC1, RG2, PDX cell lines, wild type or SR‐B1 ‐/‐ TRAMP‐C2, and wild type or LDL‐R ‐/‐ HeLa), intradermal (A375), or fat pad (4T1 and MCF‐7) tumors, cells were implanted as described above. When the tumors reached a size around ≈0.3–1 cm, mice were injected intravenously with 100 µL of ICG conjugated PAs (in PBS, 0.5 mM) or free ICG (in PBS, 0.5 mM). After probe injections, mice were imaged using the IVIS Spectrum (PerkinElmer) with excitation and emission wavelengths of 745 and 820 nm, respectively, at the specified time points. Living Image (PerkinElmer) software was used for all analyses. For MMTV mice experiments, mice were injected intravenously weekly with SA‐E (100 µL PBS, 0.5 mM) between 71 and 85 days of age and imaged 2 days later in the IVIS. […] SA‐E was injected intravenously (100 µL PBS, 0.5 mM), 2 days later the intestinal tissue was harvested, washed, and analyzed in the IVIS for ICG.

4T1 tumor [3] = assay: Biodistribution in tumor‐bearing mice; type: in vivo, mouse; details: 4T1, 2 days after 50 nmol IV, tissue homogenates, plate reader, mean ± SEM
Procedure: For biodistribution studies in 4T1 and MC38 tumor models in wild type, ApoA1 ‐/‐, or LDL‐R ‐/‐ mice, 100 µL of ICG conjugated PAs or free ICG (0.5 mM) were intravenously injected. 2 days after injection, the mice were euthanized, and tumors and organs were excised and analyzed in the IVIS (PerkinElmer) for ICG.
To determine the percentage of the injected dose of SA‐E in tissues, 4T1 tumor, spleen, kidney, lung, and colon tissues were harvested from 5 mice 2 days after ICG conjugated SA‐E (IV, 100 µL, 0.5 mM). Organ weights were measured for normalization. Tissues were homogenized in gentleMACS M Tube containing 1 mL of PBS and equipped with a 600 µm mesh strainer using a gentleMACS dissociator as described above. The resulting tissue homogenates were transferred into a 96‐well plate for fluorescence measurement using a microplate reader (TECAN Spark 20 M). Additionally, organ tissues from healthy mice without probe injection were harvested and homogenized to prepare calibration curves. ICG conjugated SA‐E was spiked into tissue samples at different concentrations, and fluorescence intensities were measured using a microplate reader (TECAN Spark 20 M). For biodistribution studies with 10 mol% ICG containing micelles, ICG conjugated PAs were mixed with maleimide blocked PAs to achieve a final concentration of 0.25 mM ICG conjugated PAs and 2.5 mM total peptides. […]

4T1 tumor [4] = assay: Tumor accumulation, live IVIS imaging; type: in vivo, mouse
Procedure: as §1

[5] = ICG fluorescence in fractions of collected blood (plasma, WBC, RBC); type: in vivo; details: mouse blood 1 h after 50 nmol IV; average
Procedure: For these experiments, 100 µL of ICG conjugated SA‐E (0.5 mM) was intravenously injected into wild type (C57Bl/6J), ApoA1 ‐/‐, or LDL‐R ‐/‐ mice. One hour after injection blood was collected via cardiac puncture (500 µL) in EDTA containing tubes (BD MicroTainer Blood Collection Tube, 365974). To separate plasma, blood samples were centrifuged for 10 min at 1500 g, and supernatants were removed. Samples were centrifuged again for 10 min at 2500 g, and supernatants were stored at −20 °C for up to 5 days before use. For RBCs, 10 µL of the centrifugation pellet was separated and stored at −20 °C for up to 5 days before analysis. For WBCs, 100 µL of the remaining pellet was collected and combined with 2 mL Red Blood Cell Lysis Buffer (BioLegend, 420514). This mixture was allowed to incubate at room temperature for 15 min with occasional mixing. The solution was then centrifuged at 500 g for 5 min, the supernatant was removed, and the pellet was redissolved in 30 µL PBS, then stored at −20 °C for up to 5 days. […] For fluorescence measurements, 5 µL of samples were added to a 96 well plate, diluted to a total volume of 100 µL with PBS, and fluorescence was measured using a microplate reader (Tecan Spark 20 M).

[6] = 4T1 tumor‐bearing mice, 50 nmol IV

CCCCCCCCCCCCCCCC(=O)NCC(=O)NCC(=O)NCC(=O)N[C@@H](Cc1c[nH]cn1)C(=O)N[C@@H](C)C(=O)N[C@@H](C)C(=O)N[C@@H](CC(N)=O)C(=O)NCC(=O)N[C@@H](CCC(=O)O)C(=O)N[C@@H](CCC(=O)O)C(=O)N[C@@H](CS)C(=O)N[C@@H](CCC(=O)O)C(=O)O [SA‐E] (Palmitoyl-GGGHAANGEECE-OH)
uptake of 10% Cy5 micelles relative to 100% Cy5 micelles [1]: no significant difference
fluorescence anisotropy of ICG in micelles [2]: 0.123 ± 0.006
tumor accumulation, LDL‐R knockout versus wild type tumors (HeLa tumors): not needed for tumor accumulation
concentration in the tumor (4T1 tumor [3]; 5 mice): 1.9% ± 0.4 %ID / g tissue
concentration in liver (4T1 tumor [3]): 0.8% ± 0.1 %ID / g tissue
day of 50% decrease in the tumor signal (4T1 tumor [4]; [6]): 3 days
retention of tumor signal (4T1 tumor [4]; [6]): still detectable levels even 2 weeks after injection
time at which background signal was mostly cleared (4T1 tumor [4]; [6]): 2 days
total tumor accumulation relative to No‐SA (4T1 tumor [4]; [6]): ≈ 1.6 fold
time of maximum tumor fluorescence (4T1 tumor [4]; 4T1 tumor‐bearing mice, ICG conjugated, 50 nmol IV): 11 h
retention in the tumor (4T1 tumor [4]; biodistribution studies, summary in introduction): more than 2 weeks
maximum TBR (4T1 tumor [4]; days 2 to 8, 50 nmol IV): 5–6
share of fluorescence in blood plasma [5]: 98.9%
